Experiments:
[1] = system: VGLUTs (GLU vesicular transport); assay: Vesicular glutamate reuptake test ([3H]-glutamate, synaptic vesicles); format: biochemical, rat; conditions: for potency in words (EC50): based on EC50; for EC50: vesicular glutamate transport
Protocol: The EC50 was also determined for several of the compounds of the invention.
The vesicular glutamate reuptake was tested as previously described (Kish and Ueda, 1989; Naito and Ueda, 1985; Pietrancosta et al., 2010) with minor modifications. Aliquots of synaptic vesicles […] (obtained by differential centrifugation of rat cortex) were diluted in a solution containing 4 mM HEPES-KOH, pH 7.4 and 0.32M sucrose. The tested compounds were dissolved in 1% ethanol, 1% DMSO (pH was adjusted to 7.4 with 5% KOH) to initial concentrations comprised between 2 mM and 200 μM. The compounds were then diluted to desired final concentrations in a solution containing 10 mM HEPES-KOH, pH 7.4, 0.32 M sucrose, 4 mM KCl, 4 mM MgSO4 (named TPU). The tested compounds were pre-incubated in a solution containing 3 mM ATP-Mg, 1 mM L-aspartic acid, 100 μM glutamate and 0.4 mM […] and 0.4 μM [3H]-Glutamate (1.547 TBq/mmol). After 4 min at 37 °C, the reuptake reaction was initiated by the addition of rat synaptic vesicles. This mixture was incubated for 10 min at 37 °C before adding ice-cold TPU (3.5 mL) and rapidly filtering it through a membrane filter ([…], Millipore MF reference HAWP02500) using a vacuum collector. The filters were washed five times with 3.5 mL of cold TPU and placed in scintillation vials with a scintillation cocktail (optiphase hisafe 3, reference 1200-437, Perkin Elmer). The radioactivity related to the filters was measured in a Beckman LS 6500 scintillation spectrophotometer. The values obtained in the absence of ATP-Mg or in the presence of Carbonyl [COMPOUND LEFT OUT] 3-chlorophenylhydrazone (CCCP, 50 μM reference Sigma C2759) were used to determine the non-specific activity.

[2] = Fluorimetry: absorption and emission spectra, Stokes shift, molar absorption coefficient, quantum efficiency; format: physicochemical; set-up: λmax abs / λmax em: unit not given here; key to Stokes shift: λmaxem − λmaxabs (emission peak minus absorption peak); conditions: for Stokes shift: λmaxem-λmaxabs; for ε (molar absorption coefficient) / φ (quantum efficiency): coumarin-343 as reference
Protocol: The physicochemical properties of each ligand were determined thanks to fluorimetry. For each compound, a dilution range was performed and measurements were taken at 1 mM, 316 μM, 100 μM, 31.6 μM, 10 μM, 3.16 μM and 1μ. In 96-well fluorescence microplates, the absorbance and emission spectra of the ligands could be determined at each concentration thanks to a plate spectrophotometer (Tecan). The absorbance spectra are first measured for each compound so as to determine the maximum absorption wavelength (λmaxabs). The fluorescence, or emission, spectra are then determined after excitation of each compound at its λmaxabs, thus allowing obtaining the maximum fluorescence wavelength (λmaxem). Different parameters specific to each of the compounds were determined: • The Stokes shift: it corresponds to the difference between the peak of the absorption spectrum and the peak of the fluorescence spectrum, i.e.: λmaxem-λmaxabs • The molar absorption coefficient (ε): it reflects the capacity of the solutions to absorb light and is determined by the formula ε=A/(C.I)(A: optical density at λmaxabs, C: concentration of the compound, I: constant corresponding to the length of the optical path). ε is expressed in L·cm^−1·mol^−1. • The quantum efficiency (Φ): it represents the ratio of the number of photons emitted to the number of photons absorbed by the compound, i.e. the “probability” for an excited molecule to emit a photon. It takes a value between 0 and 1, 0 corresponding to a non-fluorescent molecule and 1 meaning that there is no de-excitation. Its value is determined thanks to the following formula where Abs: optical density at λmaxabs, AUC: area under the curve of the fluorescence spectrum, n: refractive index of the medium. In this formula, “m” refers to the studied molecule, and “r” to a reference fluorophore.
[formula] • of the fluorescence spectrum, n: refractive index of the medium). In this formula, “m” refers to the studied molecule, and “r” to a reference fluorophore.
The determination of ε and Φ requires the use of a reference fluorescent molecule for which these two parameters are known. Because of its coumarin-type fluorescent pattern, therefore close to those of the studied compounds, coumarin-343 (ε=44300 L·cm−1·mol−1 and Φ=0.63 in ethanol) was used as reference fluorophore. These two parameters were recalculated in the compound dilution medium (DMSO), and were used as a reference in the calculation of ε and Φ for each ligand.
In order to study the effect of a pH variation on the fluorescence intensity of the compounds, the measurements of the absorption and emission spectra were carried out in three different dilution media: • DMSO: pure dimethyl sulfoxide • Phosphate buffer pH 7.2 (0.2 M) • Phosphate buffer pH 5.5 (0.2 M)
FIG. 1 illustrates the absorption and emission spectra of the compound referenced L8, a carboxylic acid from the quinoline family. This is an example of the study carried out on each of the studied fluorophores. The graphic values determined thanks to these spectra are the λmaxabs, the λmaxem and the Stokes shift in each medium. […] The most diluted wells are preferred to see the emission peak of the compound.
The results which are obtained graphically thanks to the excitation and emission spectra and by calculation via the properties of coumarin 343 are grouped in Table 2 below.

[3] = system: striatum slices; assay: Fluorescent labeling of striatum slices; format: cell-based, mouse; conditions: 25 μM, 1 h, 37 °C
Protocol: The compatibility of the fluorescent compounds of the invention was determined in brain slices from newborns mice, a study model with greater integrity than cell culture. Mice aged 4 to 7 days are decapitated. The brains are removed and then placed in Neurobasal™-A Medium (10888022, ThermoFisher Scientific) enriched with 2% B-27™ Plus (A3582801, ThermoFisher Scientific) and 1% (volume/volume) of a mixture of streptomycin (10 mg/mL)/penicillin (10,000 U/mL). The brains are cut into 500 μm thick slices (McIlwain Tissue Chopper, model TC752) then dissociated from each other. The slices corresponding to the striatum are selected and incubated for one hour in the medium in the presence of 25 μM of fluorescent ligand, or without fluorescent molecule for the controls. Incubations in the presence or absence of the reference VGLUT inhibitor were carried out.
The brain slices were incubated in the presence of each of the compounds according to the invention D04, C07, C05, B09, L8, YL151, G02, F11 (See reference correspondences in Table 1). FIG. 4 illustrates the quantification of fluorescence of striatum slices after incubation in the presence of fluorescent compounds of the invention. […] Acquisitions were carried out using a confocal microscope (×5 objective) and the average fluorescence intensity for each slice was quantified. […]

[4] = pH 7 (phosphate buffer pH 7.2, 0.2 M)
[5] = phosphate buffer pH 5.5 (0.2 M)

| SMILES | % inhibition of GLU vesicular transport at 20 μM ([1]; coumarin-derived compounds) [%] | λmax abs ([2]; DMSO) | λmax em ([2]; DMSO) | Stokes shift ([2]; DMSO) | ε (molar absorption coefficient) ([2]; DMSO) [L/cm/mol] | φ (quantum efficiency) ([2]; DMSO) | Stokes shift ([2]; pH 5.5) | λmax abs [2, 4] | λmax em [2, 4] | Stokes shift ([2]; pH 7) | λmax abs [2, 5] | λmax em [2, 5] | potency in words (EC50) [1] | EC50 ([1]; coumarin-derived compounds) [nM] | difference between ester (F11) and acid (G02) labeling of slices [3] | % inhibition of GLU vesicular transport at 20 μM ([1]; quinoline-derived compounds) [%] | EC50 ([1]; quinoline-derived compounds) [nM] | fluorescence intensity of emission spectra ([2]; FIG. 1) |
| --- | --- | --- | --- | --- | --- | --- | --- | --- | --- | --- | --- | --- | --- | --- | --- | --- | --- | --- |
| Nc1ccc(-c2ccc(-c3cn(-c4ccc5oc(=O)c(C(=O)O)cc5c4)nn3)cc2)cc1 [LSP17-1115, 6-(4-(4′-amino-[1,1′-biphenyl]-4-yl)-1H-1,2,3-triazol-1-yl)-2-oxo-2H-chromene-3-carboxylic Acid] | 6 | 325 | 410 | 85 | 36944.8 | 0.06 | 43 | 365 | 415 | 50 | 365 | 408 |  |  |  |  |  |  |
| Nc1ccc(-c2ccc(C#Cc3cc4cc(C(=O)O)c(=O)oc4cc3O)cc2)cc1 [LSP17-1173, 6-((4′-amino-[1,1′-biphenyl]-4-yl)ethynyl)-7-hydroxy-2-oxo-2H-chromene-3-carboxylic Acid] | 100 |  | 460 | 125 | 51857.8 | 0.06 | 47 | 360 |  | 80 | 365 | 412 | effective at a very low concentration | 500 | no significant difference between the compounds G02 and F11 |  |  |  |
| COc1cc2oc(=O)c(C(=O)O)cc2cc1-n1cc(-c2ccc(-c3ccc(N)cc3)cc2)nn1 [LSP17-1124, 6-(4-(4′-amino-[1,1′-biphenyl]-4-yl)-1H-1,2,3-triazol-1-yl)-7-methoxy-2-oxo-2H-chromene-3-carboxylic Acid] | 100 | 330 | 405-511 | 75 | 21908.6 | 0.14 | 45 | 365 | 416 | 51 | 335 | 380 | effective at a very low concentration | 400 |  |  |  |  |
| CCOC(=O)c1cc2cc(C#Cc3ccc(-c4ccc(N)cc4)cc3)c(O)cc2oc1=O [F11, Ethyl-6-((4′-amino-[1,1′-biphenyl]-4-yl)ethynyl)-7-hydroxy-2-oxo-2H-chromene-3-carboxylate] |  |  | 500-620 | 160 | 62227.6 | 0.18 | 45 | 365 | 425 | 60 | 365 | 410 |  |  | no significant difference between the compounds G02 and F11 |  |  |  |
| O=C(O)c1cc(C(=O)O)c2cc(-c3ccc(-c4ccccc4)cc3)ccc2n1 [LSP13-1152-YL152 (L8), 6-(Biphenyl-4-yl) quinoline-2,4-dicarboxylic Acid] |  | 355 | 415 | 60 | 35280.3 | 0.32 | 80 | 330 |  | 80 | 330 | 410 |  |  |  | 49 | 22000 | very significant fluorescence intensities |

— patent US20260374750A1, “LIGANDS SPECIFICALLY TARGETING VESICULAR GLUTAMATE TRANSPORTERS FOR SUPER-RESOLUTION IMAGING” (SORBONNE UNIVERSITÉ, priority 2021, published 2026)
